Structures can show the parent of a compound that is named as a salt. Numbered stars: 1 amine (or outer) side, 2 acyl side, 3 side chain; on linkers, the order of the positions; unused ones are H or OH. Bridge positions count the residues as written; N and C are the ends. Square brackets hold non-standard residues; d marks the D form. Peptide text beside a SMILES is read from it. I, II: the chains in the order shown. Actinocin(9to1) = Cc1c2oc3c(C)ccc(C(=O)[*:1])c3nc-2c(C(=O)[*:2])c(N)c1=O; NMeV = CN[C@H](C(=O)O)C(C)C; Sar = CNCC(=O)O
Columns and labels:
[1] = tested on: spontaneous breast cancer rat cells (SST-2); experiment: Lung metastasis of SST-2 in SHR rats, ascorbic acid derivative combined with known anticancer agent (Example 4); type: in vivo
Description: 1×100,000 spontaneous breast cancer rat cells (SST-2) were subcutaneously implanted into the back of a rat (SHR rat) (5 rats per group) suffering from spontaneous hypertension. After 35 days, the rats were sacrificed, and the number of colonies formed were measured to examine the degree of metastasis of SST-2 to the lung.
The ascorbic acid derivatives used were L-ascorbic acid-2-phosphate-6-palmitate, L-ascorbic acid-6-benzoate (reference compound) and magnesium L-ascorbic acid-2-phosphate.
Each of the groups treated with an ascorbic acid derivative was subjected to a test of administering the ascorbic acid derivative alone and to a test of administering the ascorbic acid derivative in combination with a known anticancer agent as shown in Table 4. Furthermore, tests of administering the anticancer agents alone were conducted. Over the period of from 7 days prior to implantation to 34 days after the implantation, the ascorbic acid derivative was injected through a vein in the tail region at a dose of 1 mg/1 day/rat. Each of the known anticancer agents was perorally administered in a minimum dose by reference to the concentration for a single use case described in the publication, Tyakuhin Yoran (Medical Product Handbook), 4th Edition, pp. 1474-1509, Yakugyo Jiho-Sha (1989), and the number of colonies formed after metastasis was compared.

[2] = tested on: spontaneous breast cancer rat cells (SST-2); experiment: as above; type: in vivo; remark: listed apart in the source
[3] = ascorbic acid derivative 1 mg/1 day/rat tail vein, day -7 to day 34, known anticancer agent perorally in minimum dose, colonies after 35 days

Row | SMILES | Cancer metastasis inhibitory effect of combination with L-Ascorbic Acid-2-Phosphate-6-Palmitate versus each agent alone [1, 3] | Cancer metastasis inhibitory effect of combination with L-Ascorbic Acid-2-Phosphate-6-Benzoate versus each agent alone [2, 3] | Cancer metastasis inhibitory effect of combination with L-Ascorbic Acid-6-Palmitate versus each agent alone [2, 3] | Cancer metastasis inhibitory effect of combination with L-Ascorbic Acid-2-Phosphate-6-Palmitate versus each agent alone ([1]; rat, in vivo) | Cancer metastasis inhibitory effect of combination with L-Ascorbic Acid-2-Phosphate-6-Benzoate versus each agent alone ([2]; rat, in vivo) | Cancer metastasis inhibitory effect of combination with L-Ascorbic Acid-6-Palmitate versus each agent alone ([2]; rat, in vivo)
1 | N=c1ccn2c(n1)O[C@H]1[C@H](O)[C@@H](CO)O[C@H]12 [ANCITABINE hydrochloride] | + | + | − |  |  | 
2 | COC(COC(N)=O)C1=C(N2CC2)C(=O)C(C)=C(N2CC2)C1=O (stereo not drawn) [CARBOCON] | + | + | − |  |  | 
3 | C[C@]12CC[C@@H]3c4ccc(OC(=O)N(CCCl)CCCl)cc4CC[C@H]3[C@@H]1CC[C@@H]2OP(=O)(O)O [Estracyt (R)] | + | + | − |  |  | 
4 | CC/C(=C(/CC)c1ccc(OP(=O)(O)O)cc1)c1ccc(OP(=O)(O)O)cc1 [HONPAN] | + | + | − |  |  | 
5 | O[C@@H]([C@H](O)[C@H](O)CBr)[C@H](O)CBr [MITOPURNITOL] | + | + | − |  |  | 
6 | CS(=O)(=O)OCCCNCCCOS(C)(=O)=O.Cc1ccc(S(=O)(=O)O)cc1 [Protecton (R)] | + | + | − |  |  | 
7 | S=P(N1CC1)(N1CC1)N1CC1 [TIOTEBA] | + | + | − |  |  | 
8 | CC(=O)O[C@@H]1C(=O)O[C@H]2[C@@H]1OC(=O)[C@@H]2OC(C)=O [aceglatone] | + | + | − |  |  | 
9 | CC[C@@]1(O)C[C@H](O[C@H]2C[C@H](N(C)C)[C@H](O[C@H]3C[C@H](O)[C@H](O[C@H]4CCC(=O)[C@H](C)O4)[C@H](C)O3)[C@H](C)O2)c2c(cc3c(c2O)C(=O)c2c(O)cccc2C3=O)[C@H]1C(=O)OC [aclarubicin hydrochloride] |  |  |  | + | + | −
10 | Cc1c2oc3c(C)ccc(C(=O)N[C@@H]4C(=O)N[C@H](C(C)C)C(=O)N5CCC[C@H]5C(=O)N(C)CC(=O)N(C)[C@@H](C(C)C)C(=O)O[C@@H]4C)c3nc-2c(C(=O)N[C@@H]2C(=O)N[C@H](C(C)C)C(=O)N3CCC[C@H]3C(=O)N(C)CC(=O)N(C)[C@@H](C(C)C)C(=O)O[C@@H]2C)c(N)c1=O [actinomycin (D)] (I: T[dV]P[Sar][NMeV] / II: T[dV]P[Sar][NMeV]; ester I:1-I:C, II:1-II:C; linker I:N-II:N via Actinocin(9to1)) |  |  |  | + | + | −
11 | CS(=O)(=O)OCCCCOS(C)(=O)=O [bulsfan] |  |  |  | + | ± | −
12 | CCCCCCNC(=O)n1cc(F)c(=O)[nH]c1=O [carmofur] | + | + | − |  |  | 
13 | CO[C@@H]1[C@H](O)C[C@@H](O[C@@H]2C[C@H](Oc3cc4cc5c(c(O)c4c(O)c3C)C(=O)[C@@H](O[C@H]3C[C@@H](O[C@H]4C[C@@H](O[C@H]6C[C@](C)(O)[C@@H](OC(C)=O)[C@H](C)O6)[C@H](O)[C@@H](C)O4)[C@H](O)[C@@H](C)O3)[C@H]([C@H](OC)C(=O)[C@@H](O)[C@@H](C)O)C5)O[C@H](C)[C@@H]2OC(C)=O)O[C@@H]1C [chromomycin A3] | + | + | − |  |  | 
14 | N.N.[Cl][Pt][Cl] [cisplatin] | + | + | − |  |  | 
15 | O=P1(N(CCCl)CCCl)NCCCO1 (stereo not drawn) [cyclophosphamido] | + | + | − |  |  | 
16 | Nc1ccn([C@@H]2O[C@H](CO)[C@@H](O)[C@@H]2O)c(=O)n1 [cytarabine] | + | + | − |  |  | 
17 | COc1cccc2c1C(=O)c1c(O)c3c(c(O)c1C2=O)C[C@@](O)(C(C)=O)C[C@@H]3O[C@H]1C[C@H](N)[C@H](O)[C@H](C)O1 [daunorubicin hydrochloride] |  |  |  | + | + | −
18 | CN(C)/N=N/c1[nH]cnc1C(N)=O [decarbazine] | + | + | − |  |  | 
19 | COc1cccc2c1C(=O)c1c(O)c3c(c(O)c1C2=O)C[C@@](O)(C(=O)CO)C[C@@H]3O[C@H]1C[C@H](N)[C@H](O)[C@H](C)O1 [doxorubicin hydrochloride] | + | + | − |  |  | 
20 | CCCCCCCCCCCCCCCCCCCCCC(=O)Nc1ccn([C@@H]2O[C@H](CO)[C@@H](O)[C@@H]2O)c(=O)n1 [enocitabine] | + | ± | − |  |  | 
21 | C[C@]12C[C@H]3S[C@H]3C[C@@H]1CC[C@@H]1[C@@H]2CC[C@]2(C)[C@@H](O)CC[C@@H]12 [epitiostanol] |  |  |  | + | + | −
22 | O=c1[nH]c(=O)n([C@H]2C[C@H](O)[C@@H](CO)O2)cc1F [floxuridine] | + | + | − |  |  | 
23 | O=c1[nH]cc(F)c(=O)[nH]1 [fluorouracil] | + | + | − |  |  | 
24 | O=P1(NCCCl)OCCCN1CCCl (stereo not drawn) [ifosfamide] |  |  |  | + | + | −
